# Columns and labels:
# [1] = tested on: Klebsiella pneumoniae ATCC BAA-1705; test: MIC test of compounds in combination with antibiotics, Klebsiella pneumoniae ATCC BAA-1705; settings: for MIC of biapenem in combination with compound, Klebsiella pneumoniae ATCC BAA-1705 KPC-2: Biapenem + compound (8 μg/mL); for MIC of meropenem in combination with compound, Klebsiella pneumoniae ATCC BAA-1705 KPC-2: Meropenem + compound (8 μg/mL)
# Protocol: (§1) Strain preparation: the strains to be tested were streaked from glycerol tube at −80° C. onto Mueller Hinton II Agar plates. The plates were then placed in a 37° C. incubator and cultured for 18-24 hours.
# (§2) Media preparation: CAMHB (Mueller Hinton II Broth): 22 g of powder was dissolved in 1 L of purified water and sterilized at 121° C. for 10 min for use. Saline: 8.5 g NaCl was dissolved in 1 L of pure water and sterilized at 121° C. for 30 min for use.
# (§3) Preparation of compound and antibiotic stock solutions: the compound and antibiotic were dissolved in DMSO or water to 12.8 mg/mL.
# (§4) 2-Fold gradient dilution of antibiotics: 300 μL of CAMHVIB medium was added to columns 2-12 of a 96-deep well plate. In column 1, 24 μL of antibiotic stock solution and 576 µL of CAMHB medium were added and mixed well, with a concentration of 512 μg/mL. 300 µL of antibiotic solution was transferred from the column 1 to the second column and mixed well. The process was repeated until column 11, and the column 12 was a blank control.
# (§5) Dilution of combined compounds: the compound was diluted 400-fold to 32 μg/ml with CAMHB medium.
# (§6) Working solution aliquoting: 25 μL of antibiotics was aliquoted into the 96-U bottom plate with a pipette, and 25 μL of combined compound was added to each well. If antibiotics were used alone, 25 μL of CAMHB medium was added.
# (§7) Inoculum solution preparation: 5-6 single colonies were selected from the plate and suspended in normal saline. The bacterial suspension was adjusted to 0.2 (i.e., 0.5 McFarland turbidity, with a bacterial concentration was about 1 to 2×10^8 CFU/mL) with a turbidity meter. The bacterial suspension was diluted 100-fold with CAMHB medium for later use.
# (§8) Inoculation: 50 μL of inoculum solution was transferred to the above 50 μL compound plate with a pipette.
# (§9) Culture: The 96-U bottom plate was placed in an incubator at 37° C. for 18 to 20 h.
# (§10) After the incubation, bacterial growth was visually observed, and the test plate was photographed and recorded.
# [2] = tested on: Acinetobacter baumannii ARLG-1852 OXA-23; test: MIC test of compounds in combination with antibiotics, Acinetobacter baumannii ARLG-1852; settings: for MIC of biapenem in combination with compound, Acinetobacter baumannii ARLG-1852 OXA-23: Biapenem + compound (8 μg/mL); for MIC of meropenem in combination with compound, Acinetobacter baumannii ARLG-1852 OXA-23: Meropenem + compound (8 μg/mL)
# [3] = tested on: Klebsiella pneumoniae ATCC BAA-2470; test: MIC test of compounds in combination with antibiotics, Klebsiella pneumoniae ATCC BAA-2470; settings: for MIC of biapenem in combination with compound, Klebsiella pneumoniae ATCC BAA-2470 NDM-1: Biapenem + compound (8 μg/mL); for MIC of meropenem in combination with compound, Klebsiella pneumoniae ATCC BAA-2470 NDM-1: Meropenem + compound (8 μg/mL)
# [4] = tested on: Acinetobacter baumannii ARLG-1791 OXA-23; test: MIC test of compounds in combination with antibiotics, Acinetobacter baumannii ARLG-1791; settings: for MIC of biapenem in combination with compound, Acinetobacter baumannii ARLG-1791 OXA-23: Biapenem + compound (8 μg/mL); for MIC of meropenem in combination with compound, Acinetobacter baumannii ARLG-1791 OXA-23: Meropenem + compound (8 μg/mL)
# [5] = tested on: Klebsiella pneumoniae ARLG 1196; test: MIC test of compounds in combination with antibiotics, Klebsiella pneumoniae ARLG 1196; settings: for MIC of biapenem in combination with compound, Klebsiella pneumoniae ARLG-1196 CTM-1 group, SHV, NDM, TEM: Biapenem + compound (8 μg/mL); for MIC of meropenem in combination with compound, Klebsiella pneumoniae ARLG-1196 CTM-1 group, SHV, NDM, TEM: Meropenem + compound (8 μg/mL)
# Protocol: as §1, §2, §3, §4, §5, §6, §7, §8, §9, §10
# [6] = tested on: Acinetobacter baumannii WX-AB013; test: MIC test of compounds in combination with antibiotics, Acinetobacter baumannii WX-AB013; settings: for MIC of biapenem in combination with compound, Acinetobacter baumannii WX-AB013: Biapenem + compound (8 μg/mL); for MIC of meropenem in combination with compound, Acinetobacter baumannii WX-AB013: Meropenem + compound (8 μg/mL)
# Protocol: as §4, §5, §6, §7, §8, §9
# [7] = tested on: Escherichia coli ARLG 2829; test: MIC test of compounds in combination with antibiotics, Escherichia coli ARLG 2829; settings: for MIC of biapenem in combination with compound, Escherichia coli ARLG-2829 NDM-5, OXA-1: Biapenem + compound (8 μg/mL); for MIC of meropenem in combination with compound, Escherichia coli ARLG-2829 NDM-5, OXA-1: Meropenem + compound (8 μg/mL)
# [8] = tested on: Acinetobacter baumannii WX-AB005; test: MIC test of compounds in combination with antibiotics, Acinetobacter baumannii WX-AB005; settings: for MIC of biapenem in combination with compound, Acinetobacter baumannii WX-AB005: Biapenem + compound (8 μg/mL); for MIC of meropenem in combination with compound, Acinetobacter baumannii WX-AB005: Meropenem + compound (8 μg/mL)
# Protocol: as §4, §5, §6, §7, §8, §9
# [9] = tested on: Acinetobacter baumannii ARLG-1853 OXA-23; test: MIC test of compounds in combination with antibiotics, Acinetobacter baumannii ARLG-1853; settings: for MIC of biapenem in combination with compound, Acinetobacter baumannii ARLG-1853 OXA-23: Biapenem + compound (8 μg/mL); for MIC of meropenem in combination with compound, Acinetobacter baumannii ARLG-1853 OXA-23: Meropenem + compound (8 μg/mL)
# [10] = tested on: Acinetobacter baumannii ARLG-1809 OXA-23; test: MIC test of compounds in combination with antibiotics, Acinetobacter baumannii ARLG-1809; settings: for MIC of biapenem in combination with compound, Acinetobacter baumannii ARLG-1809 OXA-23: Biapenem + compound (8 μg/mL); for MIC of meropenem in combination with compound, Acinetobacter baumannii ARLG-1809 OXA-23: Meropenem + compound (8 μg/mL)
SMILES,"MIC of biapenem in combination with compound, Klebsiella pneumoniae ATCC BAA-1705 KPC-2 [1]","MIC of meropenem in combination with compound, Klebsiella pneumoniae ATCC BAA-1705 KPC-2 [1]","MIC of biapenem in combination with compound, Acinetobacter baumannii ARLG-1852 OXA-23 [2]","MIC of meropenem in combination with compound, Acinetobacter baumannii ARLG-1852 OXA-23 [2]","MIC of biapenem in combination with compound, Klebsiella pneumoniae ATCC BAA-2470 NDM-1 [3]","MIC of meropenem in combination with compound, Klebsiella pneumoniae ATCC BAA-2470 NDM-1 [3]","MIC of biapenem in combination with compound, Acinetobacter baumannii ARLG-1791 OXA-23 [4]","MIC of meropenem in combination with compound, Acinetobacter baumannii ARLG-1791 OXA-23 [4]","MIC of biapenem in combination with compound, Klebsiella pneumoniae ARLG-1196 CTM-1 group, SHV, NDM, TEM [5]","MIC of meropenem in combination with compound, Klebsiella pneumoniae ARLG-1196 CTM-1 group, SHV, NDM, TEM [5]","MIC of biapenem in combination with compound, Acinetobacter baumannii WX-AB013 [6]","MIC of meropenem in combination with compound, Acinetobacter baumannii WX-AB013 [6]","MIC of biapenem in combination with compound, Escherichia coli ARLG-2829 NDM-5, OXA-1 [7]","MIC of meropenem in combination with compound, Escherichia coli ARLG-2829 NDM-5, OXA-1 [7]","MIC of biapenem in combination with compound, Acinetobacter baumannii WX-AB005 [8]","MIC of meropenem in combination with compound, Acinetobacter baumannii WX-AB005 [8]","MIC of biapenem in combination with compound, Acinetobacter baumannii ARLG-1853 OXA-23 [9]","MIC of meropenem in combination with compound, Acinetobacter baumannii ARLG-1853 OXA-23 [9]","MIC of biapenem in combination with compound, Acinetobacter baumannii ARLG-1809 OXA-23 [10]","MIC of meropenem in combination with compound, Acinetobacter baumannii ARLG-1809 OXA-23 [10]"
"NC1COCC1Sc1ccc2c(c1C(=O)O)OB(O)C1CC21 (single isomer, unassigned) [Compound 11_P1]",≤0.125 µg/mL,≤0.125 µg/mL,0.25 µg/mL,1 µg/mL,0.25 µg/mL,≤0.125 µg/mL,0.25 µg/mL,2 µg/mL,0.25 µg/mL,0.5 µg/mL,0.5 µg/mL,2 µg/mL,0.25 µg/mL,≤0.125 µg/mL,1 µg/mL,4 µg/mL,≤0.125 µg/mL,2 µg/mL,0.5 µg/mL,2 µg/mL
"NC1COCC1Sc1ccc2c(c1C(=O)O)OB(O)C1CC21 (single isomer, unassigned) [Compound 11_P2]",0.25 µg/mL,≤0.125 µg/mL,≤0.125 µg/mL,1 µg/mL,0.25 µg/mL,0.5 µg/mL,0.25 µg/mL,2 µg/mL,0.25 µg/mL,2 µg/mL,0.5 µg/mL,2 µg/mL,≤0.125 µg/mL,≤0.125 µg/mL,1 µg/mL,4 µg/mL,≤0.125 µg/mL,1 µg/mL,0.25 µg/mL,2 µg/mL
"O=C(O)c1c(SCCN2CCOCC2)ccc2c1OB(O)C1CC21 (single isomer, unassigned) [Compound 15-a]",≤0.125 µg/mL,≤0.125 µg/mL,1 µg/mL,4 µg/mL,0.25 µg/mL,8 µg/mL,2 µg/mL,8 µg/mL,1 µg/mL,2 µg/mL,2 µg/mL,4 µg/mL,1 µg/mL,16 µg/mL,4 µg/mL,8 µg/mL,1 µg/mL,16 µg/mL,2 µg/mL,8 µg/mL
"O=C(O)c1c(SCCN2CCOCC2)ccc2c1OB(O)C1CC21 (single isomer, unassigned) [Compound 15-b]",≤0.125 µg/mL,≤0.125 µg/mL,0.25 µg/mL,2 µg/mL,≤0.125 µg/mL,1 µg/mL,0.5 µg/mL,4 µg/mL,≤0.125 µg/mL,≤0.125 µg/mL,1 µg/mL,4 µg/mL,0.25 µg/mL,1 µg/mL,2 µg/mL,4 µg/mL,0.25 µg/mL,4 µg/mL,1 µg/mL,2 µg/mL
"CC(Sc1ccc2c(c1C(=O)O)OB(O)C1CC21)C1CC1 (single isomer, unassigned) [Compound 16-a]",0.5 µg/mL,4 µg/mL,0.25 µg/mL,2 µg/mL,1 µg/mL,2 µg/mL,0.5 µg/mL,4 µg/mL,0.5 µg/mL,1 µg/mL,0.5 µg/mL,4 µg/mL,0.25 µg/mL,2 µg/mL,2 µg/mL,8 µg/mL,0.5 µg/mL,2 µg/mL,1 µg/mL,2 µg/mL
"CC(Sc1ccc2c(c1C(=O)O)OB(O)C1CC21)C1CC1 (single isomer, unassigned) [Compound 16-b]",0.25 µg/mL,2 µg/mL,0.5 µg/mL,4 µg/mL,1 µg/mL,16 µg/mL,1 µg/mL,8 µg/mL,0.5 µg/mL,8 µg/mL,2 µg/mL,4 µg/mL,0.5 µg/mL,16 µg/mL,4 µg/mL,8 µg/mL,1 µg/mL,8 µg/mL,2 µg/mL,4 µg/mL
